# Experimental data from patent publication US8101389B2, “Bacterial glutamine synthetases and methods of use” (Athenix Corp, priority 2006, dated 2012).
# What was measured:
# N[C@@H](CCC(=O)O)C(=O)O [1] = assay: enzymatic assay, kinetics of AGS1m17(AD-); format: biochemical, Serratia marcescens; conditions: other: Table 5
# Experimental: ags1m17(ad-) (SEQ ID NO:45) encoding the AGS1m17(AD-) protein (SEQ ID NO:46), is a variant of ags1m17 in which the putative adenylylation site has been removed by mutating the tyrosine at position 398 of AGS1 to a phenylalanine by site directed mutagenesis.
# (§1) The unmodified enzyme (AGS1) was compared to AGS1(AD-) and AGS1m17(AD-) by carrying out enzymatic assays on both enzymes following purification from E. coli. A glutamine synthetase enzyme from E. coli (GlnA) was also tested.
# N[C@@H](CCC(=O)O)C(=O)O [2] = assay: enzymatic assay, kinetics of AGS1m21; format: biochemical, Serratia marcescens; conditions: other: Table 4
# Text: (§2) ags1m21 (SEQ ID NO:41) encodes the AGS1m21 protein (SEQ ID NO:42). AGS1m21 is a variant of AGS1 that contains a similar amino acid change identified in other variants (V214M), as well as two novel mutations (N160S and G167R). This enzyme was expressed in E. coli, purified, and the kinetic values Km(glutamate) and Ki(glufosinate) of the variant measured by enzymatic assay.
# E. coli cells [3] = assay: Growth of E. coli transformants on M63 plates containing glufosinate; format: cell-based; conditions: 50 mM glyphosate (so in the source); versus the other variants except AGS1m16
# E. coli cells [4] = assay: as above; format: cell-based; conditions: for growth on glufosinate minimal M63+ agar media: 2, 10, 20, 50 and 100 mM glufosinate, DH5a E. coli cells
# Experimental: To reconfirm that TKH2 and TKH3 confer resistance to 20 mM glufosinate, the purified plasmids were retransformed into DH5α cells. pUC18 was retransformed as a negative control. The transformation mixes were plated directly on M63 minimal plates with or without 20 mM glufosinate.
# (§3) Mutants of the bacterial glutamine synthetase gene ags1 (SEQ ID NO:1) were created by error-prone mutagenesis using the GENEMORPH® Random Mutagenesis kit, and also using oligo-directed mutagenesis as known in the art. However, many methods are available for creating libraries of mutants. The resulting mutants were cloned into a pUC19 vector, electroporated into either XL-1 or DH5 alpha E. coli cells, and selected for growth on M63+ agar media containing antibiotic and 2, 10, or 20 mM glufosinate. Twenty-two clones were identified as growing on 20 mM glufosinate, and picked for further analysis.
# (§4) ags1m2 was mutagenized by error-prone mutagenesis using GENEMORPH® II Random Mutagenesis kit (Stratagene) according to manufacturer's instructions. Mutagenized PCR product was digested with Sac I and Hind III, and ligated into a pUC vector, similarly digested with Sac I and Hind III. Ligations were transformed into E. coli cells, and plated onto M63+ plates containing antibiotic, and 125 mM glufosinate. Clones growing on 125 mM glufosinate plates were retested on 200 mM glufosinate plates, and compared to similar platings of ags1m1 and ags1m2. […] The DNA sequence of the ags open reading frame in pAX3439 was sequenced, and the gene designated as ags1m16. The DNA sequence of ags1m16 is represented herein as SEQ ID NO:31, and the amino acid sequence is represented herein as SEQ ID NO:32. AGS1m16 differs from AGS1m2 at a single amino acid at position H212 of the protein, which is modified from Histidine (‘H’) to Asparagine (‘N’), and contains a total of five amino acid changes relative to the wild-type AGS1 (see FIG. 1 and Table 3).
# Clones expressing AGS1m17, AGS1m18, AGS1m19, or AGS1m20 were all found to be able to grow on plates containing 375 mM glufosinate, whereas no growth of clones expressing AGS1m16 was observed on plates containing 375 mM glufosinate.
# [5] = test system: E. coli cells with AGS1 variant AGS1m2 (pAX3422), F81S, P185S, G218S, I303N, SEQ ID NO:6; assay: growth of E. coli on herbicide plates, ags1m2; format: cell-based; conditions: 50 mM glyphosate; than the other variants, except AGS1m16
# Experimental: as §3
# as §4, with “AGS1m16 differs from AGS1m2 at a single amino acid at position H212 of the protein, which is modified from Histidine (‘H’) to Asparagine (‘N’), and contains a total of five amino acid changes relative to the wild-type AGS1 (see FIG. 1 and Table 3).” left out
# [6] = test system: E. coli cells with AGS1 variant AGS1m4 (pAX3428), A151T, V214M, S276Y, SEQ ID NO:10; assay: growth of E. coli on herbicide plates, ags1m4; format: cell-based; conditions: than the other variants, except AGS1m16
# Text: Mutants of the bacterial glutamine synthetase gene ags1 (SEQ ID NO:1) were created by error-prone mutagenesis using the GENEMORPH® Random Mutagenesis kit, and also using oligo-directed mutagenesis as known in the art. However, many methods are available for creating libraries of mutants. […]
# [7] = test system: pea leaf glutamine synthetase; conditions: Leason et al. (1982); cited from earlier work
# N[C@@H](CCC(=O)O)C(=O)O [8] = assay: enzymatic assay, kinetics of wild-type AGS1; format: biochemical, Serratia marcescens; conditions: other: Table 4
# Text: (§5) ags1m1 (pAX3421) and ags1m2 (pAX3422) were subcloned into E. coli expression vector pRSF1B (Invitrogen) so as to create an N-terminus encoding a 6Xhis tag, purified and characterized kinetically.
# as §2, §1
# maize = assay: Leaf protein content of T0 transgenic maize plants (Bradford assay); format: in vivo
# Text: synags1m16 (SEQ ID NO:47) is an alternate DNA sequence that encodes the AGS1m16 protein (SEQ ID NO:32). synags1m16 was cloned into a shuttle vector to guide overexpression of AGS1m16 in maize. The vector places overexpression of synags1m16 under the control of the Trp5 promoter (U.S. application Ser. No. 11/377,318, filed Mar. 16, 2006 and herein incorporated by reference in its entirety).
# Nine transgenic maize plants containing ags1m16 were generated. Protein expression of the AGS1m16 protein was confirmed by Western blot for each of these events.
# Nitrogen use efficiency was evaluated for these events by determining the protein content of leaf samples isolated from the T0 plants after four weeks of growth in the greenhouse.
# The protein in leaf samples was quantified as follows: Fifty milligrams of leaf material (fresh weight, no midrib) were freeze-dried for dry weight determination. The dehydrated leaf tissue was then ground in the presence of fresh Milli Q water using a MiniBeadbeater-96™ and 2.3 mm stainless-steel beads. The ground leaf tissue was filtered through a 0.45 μm Polyvinylidene Fluoride (PVDF) filter. Bio-Rad Protein Dye was added to leaf samples diluted in water, and a Bradford protein assay was performed and read in the spectrophotometer at 595 nm vs. internal protein standards included in the assay. […]
# ags1 mutant E. coli = assay: Complementation of a glutamine synthase mutant; format: cell-based
# Text: Clones containing ags1m1 (pAX3421) and ags1m2 (pAX3422) were selected for further work.
# [9] = test system: ags1 glutamine synthetase enzyme; assay: Enzymatic activity of purified 6Xhis-tagged glutamine synthetases with and without glufosinate; format: biochemical, Serratia marcescens; conditions: for enzymatic activity compared with wild type AGS1: 5 minute assay, absence of glufosinate
# Text: as §5
# N[C@@H](CCC(=O)O)C(=O)O [10] = assay: enzymatic assay, kinetics of AGS1(AD-); format: biochemical, Serratia marcescens; conditions: other: Table 5
# Experimental: ags1(ad-) (SEQ ID NO:43) encoding the AGS1(AD-) protein (SEQ ID NO:44), is a variant of ags1 in which the putative adenylylation site has been removed by mutating the tyrosine at position 398 of AGS1 to a phenylalanine by site directed mutagenesis.
# as §1
compound,measurement,setting,value
"Serratia marcescens glutamine synthetase AGS1 variant AGS1m17(AD-), F81S, P185S, H212T, V214A, G218S, I303N plus tyrosine 398 to phenylalanine, SEQ ID NO:46 (Serratia marcescens; F81S/G218S/H212T/I303N/P185S/V214A/Y398F)",Km,N[C@@H](CCC(=O)O)C(=O)O [1],14.1 mM
"Serratia marcescens glutamine synthetase AGS1 variant AGS1m21, N160S, G167R, V214M, SEQ ID NO:42 (Serratia marcescens; G167R/N160S/V214M)",Km,N[C@@H](CCC(=O)O)C(=O)O [2],12.0 mM
"ags1m4: ags1 variant A151T, V214M, S276Y; SEQ ID NO:9/10",speed of colony growth on 50 mM glyphosate,E. coli cells [3],grow more quickly
"ags1m7: ags1 variant G168C, V214M, K395R; SEQ ID NO:13/14",growth on glufosinate minimal M63+ agar media,E. coli cells [4],"grow on 2, 10, 20, 50, and 100 mM glufosinate"
O=C(O)CNCP(=O)(O)O [glyphosate],colony growth on 50 mM glyphosate versus other variants,[5],grow more quickly
same,colony growth on 50 mM glyphosate versus other variants,[6],grow more quickly
"ags1m14: ags1 variant V150M, D166N, V214M, G289S, A420V; SEQ ID NO:27/28",growth on glufosinate minimal M63+ agar media,E. coli cells [4],"grow on 2, 10, 20, 50, and 100 mM glufosinate"
"ags1m12: ags1 variant V207I, V214M; SEQ ID NO:23/24",growth on glufosinate minimal M63+ agar media,E. coli cells [4],"grow on 2, 10, 20, 50, and 100 mM glufosinate"
"CS(=N)(=O)CCC(N)C(=O)O (stereo not drawn) [Methione sulfoximine (MSO), Methione sulfoximine]",inhibition of pea leaf glutamine synthetase,[7],mixed competitive inhibitor
"Serratia marcescens ATX 20345 glutamine synthetase AGS1, wild type, SEQ ID NO:2 (Serratia marcescens)",Km,N[C@@H](CCC(=O)O)C(=O)O [8],3.4 mM
same,Vmax,N[C@@H](CCC(=O)O)C(=O)O [8],0.10 nmol/min/µg
same,kcat,N[C@@H](CCC(=O)O)C(=O)O [8],0.08 s⁻¹
"ags1m16: ags1 variant F81S, P185S, H212N, G218S, I303N; SEQ ID NO:31/32","resistance conferred upon E. coli, compared among variants",E. coli cells [4],most resistance
same,growth on 200 mM glufosinate plates,"E. coli cells [4]; M63+ plates, 200 mM glufosinate",ability to grow on 200 mM glufosinate plates
same,"Total protein, Avg.",maize; average of nine ags1m16 events,16.8 mg/g dry
same,higher protein content than the control plants,"maize; average, versus control plants without ags1m16",24%
"ags1m2: ags1 variant F81S, P185S, G218S, I303N; SEQ ID NO:5/6",complementation of ags1 mutant E. coli,ags1 mutant E. coli,complement ags1 mutant E. coli
same,enzymatic activity compared with wild type AGS1,[9],relatively little enzymatic activity
same,enzymatic reaction overnight,[9]; overnight,appeared to go to completion overnight
same,speed of colony growth on 50 mM glyphosate,E. coli cells [3],grow more quickly
"ags1m11: ags1 variant G56A, V214E; SEQ ID NO:21/22",growth on glufosinate minimal M63+ agar media,E. coli cells [4],"grow on 2, 10, 20, 50, and 100 mM glufosinate"
same,speed of colony growth on 50 mM glyphosate,E. coli cells [3],grow more quickly
"Serratia marcescens glutamine synthetase AGS1 variant AGS1(AD-), tyrosine 398 to phenylalanine, SEQ ID NO:44 (Serratia marcescens; Y398F)",Km,N[C@@H](CCC(=O)O)C(=O)O [10],3.4 mM
"ags1m1: glufosinate resistant ags1 variant V39I, V214M; SEQ ID NO:3/4",growth on glufosinate minimal M63+ agar media,E. coli cells [4],"grow on 2, 10, 20, 50, and 100 mM glufosinate"
same,complementation of ags1 mutant E. coli,ags1 mutant E. coli,complement ags1 mutant E. coli
same,growth rate in complementation of ags1 mutant E. coli,ags1 mutant E. coli; comparison of ags1m1 with ags1m2,growing at a faster rate than ags1m2
same,enzymatic activity compared with wild type AGS1,[9],indistinguishable from wild type enzyme
